Columns and labels:
Format in all cases: cell-based, human
[1] = system: LPS-mediated gene transcription of COX-2; assay: Real-time RT-PCR of COX-2 mRNA in LPS-stimulated monocytes; settings: 300 μM, 0.1 μg/ml LPS for 1.5 h or 24 h
Experimental: (§1) FIG. 4—The glycerophosphoinositols inhibit LPS-mediated gene transcription of TNFα, IL-1β and COX-2. Human monocytes were purified from peripheral blood and incubated at 37° C. for 20 min without or with 300 μM GroPIns or GroPIns4P, and for an additional 1.5 h or 24 h in the absence and presence of 0.1 μg/ml LPS from E. coli. At each time point, RNA was extracted and converted to cDNA for real-time PCR analysis of TNFα, IL-1β and COX-2. Each sample was measured in triplicate and the data were calculated using the delta-delta method (2-DDCT). Transcription of the house-keeping gene GAPDH was used to normalise the data. Measurements of mRNA levels were expressed as fold-increase over the respective control (unstimulated) cells, and are means (±SD) of triplicates from one representative experiment of 4 experiments performed with cells from different donors. Asterisks indicate statistically significant differences (*p<0.0485; **p<0.0092).
(§2) One μg total RNA (extracted through thiocyanate/caesium chloride method) was converted to cDNA using Moloney murine leukaemia virus reverse transcriptase (Applied Biosystems, Italy). […] Each sample was measured in triplicate and the data were analysed with the SDS 2.0 software (Applied Biosystems, Italy) by the delta-delta method (2-DDCT) for comparing relative expression results. […]

ERK1/2 = assay: Western blotting of phosphorylated ERK1/2 in LPS-stimulated monocytes; settings: 300 μM, 0.1 μg/ml LPS for 1 h
Experimental: (§3) Monocytes from healthy donors were incubated at 37° C. for 20 min without or with 300 μM GroPIns or GroPIns4P, and for an additional 1 h in the absence and presence of 0.1 μg/ml LPS from E. coli. Resentative Western blots are shown, as resolved using 10% SDS-PAGE, showing phosphorylated (p-) and total levels of p38 and ERK1/2. All of the blots were representative of at least three independent experiments.
(§4) Protein extracts were analysed by Western blotting by the following procedures. The nitrocellulose filters containing the proteins of interest were incubated in the blocking solution for Western blotting plus 3% bovine serum albumin (BSA) or 5% milk powder (Fluka, Switzerland) for 1 h at room temperature, and then with the primary antibody diluted to its working concentration (see Table 2) in the blocking solution for Western blotting (plus BSA or milk powder). After a 2-4 h incubation at room temperature, or an overnight (O/N) incubation at 4° C., the antibody was removed and the strips were washed twice in Tween®/Tris-buffered salt solution (TTBS), for 15 min each. […] After washing the strips were incubated with the enhanced luminescence (ECL) reagents (Amersham Pharmacia Biotech, NJ, USA), according to the manufacturer instructions, and protein signals were detect by autoradiography using Kodak film.

[2] = system: LPS-induced tissue-factor gene expression; assay: Real-time RT-PCR of tissue factor mRNA in LPS-stimulated monocytes; settings: 300 μM, 0.1 μg/ml LPS for 24 h (chronic)
Experimental: FIG. 3—The glycerophosphoinositols inhibit LPS-induced tissue-factor gene expression. Freshly isolated human monocytes were incubated at 37° C. for 20 min without or with 300 μM GroPIns or GroPIns4P, and for a further 1.5 h or 24 h in the absence and presence of 0.1 μg/ml LPS. At each time point, the total RNA was extracted from cells by the thiocyanate/caesium chloride method and converted to cDNA. Real-time PCR measurements of tissue factor were performed using validated primers. GAPDH served as the house-keeping gene. Each sample was measured in triplicate and the data were calculated with the delta-delta method (2-DDCT) for comparing relative expression data. Monocytes incubated alone for different times were considered the control sample. Measurements of mRNA levels were expressed as fold-increase over control, and are means (±SD) of triplicates from one experiment that is representative of 4 experiments performed with cells from different donors (*p=0.016; **p=0.0052). […]
as §2

[3] = system: LPS-mediated gene transcription of IL-1β; assay: Real-time RT-PCR of IL-1β mRNA in LPS-stimulated monocytes; settings: 300 μM, 0.1 μg/ml LPS for 1.5 h or 24 h
Experimental: as §1, §2

[4] = system: LPS-mediated gene transcription of TNFα; assay: Real-time RT-PCR of TNFα mRNA in LPS-stimulated monocytes; settings: 300 μM, 0.1 μg/ml LPS for 1.5 h or 24 h
Experimental: as §1, §2

p38 = assay: Western blotting of phosphorylated p38 in LPS-stimulated monocytes; settings: 300 μM, 0.1 μg/ml LPS for 1 h
Experimental: as §3, §4

[5] = system: LPS-induced degradation of I-κBα; assay: Western blotting of I-κBα in LPS-stimulated monocytes; settings: 300 μM, 0.1 μg/ml LPS for 1 h
Experimental: Monocytes were incubated at 37° C. for 20 min without or with 300 μM GroPIns or GroPIns4P, and for a further 1 h in the absence and presence of 0.1 μg/ml LPS. After stimulation, the cells were lysed and expression levels of I-κBα were analysed. Proteins were resolved using 10% SDS-PAGE and were probed by Western blotting, using a polyclonal anti-I-κBα antibody. The data are representative of four experiments performed with monocytes isolated from peripheral blood of different donors.
as §4

| SMILES | effect on LPS-induced COX-2 mRNA expression [1] | phosphorylation level of ERK1/2 (ERK1/2) | inhibition of LPS-induced tissue factor mRNA levels [2] | effect on LPS-induced IL-1β mRNA expression [3] | effect on LPS-induced TNFα mRNA expression [4] | phosphorylation level of p38 (p38) | effect on LPS-induced degradation of I-κBα [5] |
| --- | --- | --- | --- | --- | --- | --- | --- |
| O=P(O)(O)OC1[C@@H](O)[C@H](O)C(OP(=O)(O)OCC(O)CO)[C@@H](O)[C@H]1O (some centres unmarked) [GroPIns4P, glycerophosphoinositol 4-phosphate] | inhibited the effects of LPS on expression of all of the genes analysed | did not affect the phosphorylation levels | completely ineffective | inhibited the effects of LPS on expression of all of the genes analysed | inhibited the effects of LPS on expression of all of the genes analysed | did not affect the phosphorylation levels | did not affect this LPS activity |
| O=P(O)(OCC(O)CO)OC1C(O)C(O)C(O)C(O)C1O (centres unmarked) [GroPIns, glycerophosphoinositol] | inhibited the effects of LPS on expression of all of the genes analysed | did not affect the phosphorylation levels | ~60% | inhibited the effects of LPS on expression of all of the genes analysed | inhibited the effects of LPS on expression of all of the genes analysed | did not affect the phosphorylation levels | did not affect this LPS activity |
